Here are results for one compound from patent US20240398767A1, “INHIBITORS OF THE MTDH-SND1 PROTEIN COMPLEX FOR CANCER THERAPY” (The Trustees of Princeton University, priority 2021, published 2024).

For this assay, the system named is SCP28 cells. Description: Experimental lung metastasis of SCP28 cells. The class given is in vivo. Particulars: 5 weeks treatment. The protocol: FIG. 17D, Tail-vein injection lung metastasis was determined by BLI right before (Week 0) or after (5 weeks) vehicle or C26-A6 treatment. Vehicle, n=11 lungs; C26-A6, n=12 lungs.
FIG. 17E, Lung metastatic nodules were quantified. The metastatic nodules of the representative lungs were highlighted with red and blue respectively. Size bar, 5 mm. Vehicle, n=11 lungs; C26-A6, n=12 lungs.
To exclude the possibility that the lung metastasis reduction upon C26-A6 treatment was due to the smaller primary tumor, tail vein injection of PyMT tumor cells was performed to form experimental lung metastasis in FVB mice. Three days later, mice were divided randomly into two groups and treated with vehicle or C26-A6 respectively (FIG. 5L).

With `COc1ccc(Cl)cc1S(=O)(=O)Nc1cccn2nc(C)nc12` [Analog C26-A6], the experimental lung metastasis result is “dramatically inhibited”.
